{"source": "patent US9975882B2", "about": "“Heteroaromatic compounds as BTK inhibitors” (Boehringer Ingelheim International GmbH, priority 2015, dated 2018)", "key": {"[1]": {"target": "human recombinant full length TEC (His-tagged) (Homo sapiens (Human), UniProt P42680)", "sequence (P42680 whole entry)": "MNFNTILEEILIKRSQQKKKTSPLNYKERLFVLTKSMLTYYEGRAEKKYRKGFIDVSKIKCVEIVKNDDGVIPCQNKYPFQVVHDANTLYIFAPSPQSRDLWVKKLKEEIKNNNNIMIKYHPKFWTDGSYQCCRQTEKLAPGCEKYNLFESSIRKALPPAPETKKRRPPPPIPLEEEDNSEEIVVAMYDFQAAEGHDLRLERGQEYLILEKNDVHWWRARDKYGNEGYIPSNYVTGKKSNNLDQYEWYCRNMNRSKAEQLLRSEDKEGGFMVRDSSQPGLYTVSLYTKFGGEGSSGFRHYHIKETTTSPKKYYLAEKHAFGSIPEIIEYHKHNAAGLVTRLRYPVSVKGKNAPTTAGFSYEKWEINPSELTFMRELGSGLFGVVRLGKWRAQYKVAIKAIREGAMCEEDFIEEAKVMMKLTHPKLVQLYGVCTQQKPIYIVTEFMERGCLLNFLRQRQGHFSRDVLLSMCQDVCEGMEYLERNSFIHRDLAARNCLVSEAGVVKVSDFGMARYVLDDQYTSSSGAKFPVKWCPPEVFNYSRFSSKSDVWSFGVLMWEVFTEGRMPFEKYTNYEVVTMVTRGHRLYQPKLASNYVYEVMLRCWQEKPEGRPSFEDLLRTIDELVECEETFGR", "experiment": "TEC Lanthscreen Eu Kinase Binding assay", "details": "1 nM TEC"}, "[2]": {"target": "human recombinant Txk (full length, GST-tagged) (Homo sapiens (Human), UniProt P42681)", "sequence (P42681 whole entry)": "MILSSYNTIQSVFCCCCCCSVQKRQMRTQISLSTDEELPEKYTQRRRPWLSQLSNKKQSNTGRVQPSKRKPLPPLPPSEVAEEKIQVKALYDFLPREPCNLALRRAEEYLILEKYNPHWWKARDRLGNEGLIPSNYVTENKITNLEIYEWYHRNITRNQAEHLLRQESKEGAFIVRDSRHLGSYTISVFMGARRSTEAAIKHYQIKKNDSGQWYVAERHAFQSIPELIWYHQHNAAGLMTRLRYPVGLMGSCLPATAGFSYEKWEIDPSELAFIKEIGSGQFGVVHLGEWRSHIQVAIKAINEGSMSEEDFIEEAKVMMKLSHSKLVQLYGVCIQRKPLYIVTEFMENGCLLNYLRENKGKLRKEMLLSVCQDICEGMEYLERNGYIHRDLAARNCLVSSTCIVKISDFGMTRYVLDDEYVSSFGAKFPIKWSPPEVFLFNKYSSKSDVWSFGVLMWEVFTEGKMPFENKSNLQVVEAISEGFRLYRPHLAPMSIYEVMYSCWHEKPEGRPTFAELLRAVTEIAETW", "experiment": "TXK Z'-LYTE assay;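 note: FRET read-out of kinase phosphorylation of a synthetic peptide labelled with Coumarin and Fluorescein, scored by protease sensitivity of unphosphorylated peptide, incubated at 22 °C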", "details": "read-out: TXK IC50, 100 μM ATP", "protocol": "Z′-LYTE™ Assay (Life Technologies):\n(§3) The Z′-Lyte assay employs a FRET-based, coupled-enzyme format and is based on the differential sensitivity of phosphorylated and non-phosphorylated peptides to proteolytic Cleavage. The activity of human recombinant BTK (full length, His-tagged), BMX (full length, His-tagged) or Txk (full length, GST-tagged) is estimated by measuring the phosphorylation of a synthetic FRET peptide substrate labeled with Coumarin and Fluorescein. […] Incubations are carried out at 22° C. in black polypropylene 384-well plates (Corning).\n(§4) Representative compounds of the present invention are assessed for inhibition of BTK, BMX, and TXK measuring phosphorylation of a substrate (Z′-LYTE™ assay, Life Technologies) and TEC measuring displacement of a “tracer” (Lanthscreen® Eu Kinase Binding assay, Life Technologies)."}, "[3]": {"system": "BTK (IL-6 production in primary CD19+ B cells)", "experiment": "Inhibition of IL-6 production in B cells co-stimulated with ODN 2006 and anti-hIgD", "type": "cell-based", "details": "B-cell, anti-human IgD + ODN 2006", "experimental": "Inhibition of IL-6 Production in B Cells Co-Stimulated with ODN 2006 and anti-hIgD\nPrimary CD19+ B cells (AllCells #PB010F) are thawed and plated in RPMI containing 10% HI FBS in a 384-well tissue cultured plate at 20,000 cells/well. The cells are treated with test compound (0.5% DMSO final concentration) and incubated for 1 hour at 37° C., 5% CO2. Cells are then stimulated with 5 ug/mL Goat F(ab′)2 anti-human IgD (SouthernBiotech #2032) and 2 uM ODN 2006 (InvivoGen #tlrl-2006) and incubated for 18-24 hours at 37° C., 5% CO2. IL-6 in the supernatant is measured using Meso Scale Discovery kit #K211AKB-6.\n(§1) Representative compounds of the present invention are tested and show BTK inhibition (Table I). […] Additionally, compounds of the present invention, as represented by examples in Table II, are selective for BTK inhibition over other related kinases. […] In this table the BTK activity is measured by IL-6 production in primary CD19^+ B cells, and the EGFR activity is measured by EGFR phosphorylation in A431 cells."}, "[4]": {"target": "human full length His-tagged BTK (Homo sapiens (Human), UniProt Q06187)", "sequence (Q06187 whole entry)": "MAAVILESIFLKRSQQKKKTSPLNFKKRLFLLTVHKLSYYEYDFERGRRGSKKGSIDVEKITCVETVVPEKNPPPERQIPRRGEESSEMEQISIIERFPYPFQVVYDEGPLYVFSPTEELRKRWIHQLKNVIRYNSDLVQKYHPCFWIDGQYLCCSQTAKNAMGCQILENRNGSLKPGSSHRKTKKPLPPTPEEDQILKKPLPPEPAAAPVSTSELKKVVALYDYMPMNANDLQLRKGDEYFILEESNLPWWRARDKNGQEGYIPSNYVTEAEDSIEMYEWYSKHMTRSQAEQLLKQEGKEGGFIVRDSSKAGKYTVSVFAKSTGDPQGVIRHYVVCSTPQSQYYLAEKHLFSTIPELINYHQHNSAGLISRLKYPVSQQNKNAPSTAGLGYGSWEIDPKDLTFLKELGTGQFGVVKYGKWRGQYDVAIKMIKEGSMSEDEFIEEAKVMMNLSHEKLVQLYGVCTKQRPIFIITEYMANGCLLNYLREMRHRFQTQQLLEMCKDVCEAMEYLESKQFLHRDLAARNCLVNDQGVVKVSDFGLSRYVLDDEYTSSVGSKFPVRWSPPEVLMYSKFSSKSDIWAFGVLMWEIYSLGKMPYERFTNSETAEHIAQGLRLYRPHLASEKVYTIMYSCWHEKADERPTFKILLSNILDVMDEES", "experiment": "BTK Lanthscreen Eu Kinase Binding assay", "details": "2 nM BTK", "experimental": "BTK Lanthscreen® Eu Kinase Binding Assay:\nA Lanthscreen® Eu Kinase Binding assay (Life Technologies) is performed to quantitate the ability of test compounds to bind to BTK. The assay is based on the binding and displacement of Alexa Fluor647-labeled Kinase Tracer #236 to the ATP-binding site of human full length His-tagged BTK (Life Technologies cat #PV3587) with TR-FRET detection using a europium-labeled anti-His antibody. The assay is assembled in 384-well low volume NBS black plates (Corning) where 2 nM BTK and test compound in DMSO at varying concentrations are pre-incubated for 30 min at 28° C. in assay buffer consisting of 50 mM HEPES, pH 7.4, 10 mM MgCl2, 1 mM EGTA. 100 μM Na3VO4 and 0.01% Brij 35. Then, 2 nM of Eu-anti His antibody and 30 nM Kinase Tracer are added and incubated for 60 min at 28° C. Following incubation, TR-FRET signal is read on an Envision plate reader (Excitation: 340 nm; Emissions: 615 and 665 nm). The 665:615 nm emission ratio is calculated and converted to POC compared to control and blank wells."}, "[5]": {"target": "EGFR (EGFR phosphorylation in A431 cells) (Homo sapiens (Human), UniProt P00533)", "sequence (P00533 25-1210)": "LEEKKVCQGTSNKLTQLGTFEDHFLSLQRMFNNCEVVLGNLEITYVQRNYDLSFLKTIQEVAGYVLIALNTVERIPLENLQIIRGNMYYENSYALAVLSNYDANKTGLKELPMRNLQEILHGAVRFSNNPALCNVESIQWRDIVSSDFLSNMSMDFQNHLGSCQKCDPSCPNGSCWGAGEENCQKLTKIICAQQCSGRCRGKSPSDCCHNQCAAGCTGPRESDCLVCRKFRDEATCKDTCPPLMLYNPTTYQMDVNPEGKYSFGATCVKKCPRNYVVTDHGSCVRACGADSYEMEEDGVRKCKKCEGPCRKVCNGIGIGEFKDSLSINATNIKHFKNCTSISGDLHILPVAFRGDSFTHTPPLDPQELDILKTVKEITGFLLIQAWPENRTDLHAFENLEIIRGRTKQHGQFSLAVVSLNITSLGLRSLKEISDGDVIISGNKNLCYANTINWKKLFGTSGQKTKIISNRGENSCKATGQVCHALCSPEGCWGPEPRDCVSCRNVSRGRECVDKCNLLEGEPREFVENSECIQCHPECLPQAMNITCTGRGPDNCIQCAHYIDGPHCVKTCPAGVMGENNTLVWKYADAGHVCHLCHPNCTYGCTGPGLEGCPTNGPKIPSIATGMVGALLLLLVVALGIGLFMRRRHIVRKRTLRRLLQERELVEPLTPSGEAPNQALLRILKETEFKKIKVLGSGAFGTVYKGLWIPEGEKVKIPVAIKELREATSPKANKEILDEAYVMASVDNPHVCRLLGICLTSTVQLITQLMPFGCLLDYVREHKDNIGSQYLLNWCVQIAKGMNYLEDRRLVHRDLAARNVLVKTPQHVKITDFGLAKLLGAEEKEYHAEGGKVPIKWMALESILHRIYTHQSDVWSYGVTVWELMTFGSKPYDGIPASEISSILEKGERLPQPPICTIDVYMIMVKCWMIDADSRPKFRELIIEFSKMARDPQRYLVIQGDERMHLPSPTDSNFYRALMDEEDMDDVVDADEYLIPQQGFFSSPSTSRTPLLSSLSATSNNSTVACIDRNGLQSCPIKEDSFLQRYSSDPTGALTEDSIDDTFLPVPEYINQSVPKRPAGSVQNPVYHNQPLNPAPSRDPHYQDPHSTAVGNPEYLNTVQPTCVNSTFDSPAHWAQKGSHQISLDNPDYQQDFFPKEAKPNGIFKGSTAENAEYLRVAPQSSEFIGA", "experiment": "Inhibition of EGFR autophosphorylation in A431 human epithelial cells stimulated with EGF", "type": "cell-based", "details": "EGF 60 ng/mL, read-out: A431 p-EGFR IC50", "experimental": "Inhibition of EGFR Autophosphorylation in A431 Human Epithelial Cells Stimulated with Epithelial Growth Factor\nA431 cells (ATCC #CRL-1555 FZ) are thawed and plated in DMEM containing 10% FBS in a 384-well tissue culture treated plate at 15,000 cells/well. After incubating for 24 hours at 37° C., 5% CO2, the cells are treated with test compound (1% DMSO final concentration) and incubated for 16 hours at 37° C., 5% CO2. EGF (Millipore, 01-107) is added at a final concentration of 60 ng/mL and incubated for 10 minutes. The medium is removed, the cells are lysed, and phospho EGFR is measured (Meso Scale Diagnostics, N31CB-1).\nas §1"}, "[6]": {"target": "human recombinant BTK (full length, His-tagged) (Homo sapiens (Human), UniProt Q06187)", "sequence (Q06187 whole entry)": "as the sequence (Q06187 whole entry) above", "experiment": "BTK Z'-LYTE assay", "type": "biochemical", "details": "25 μM ATP", "protocol": "Z′-LYTE™ Assay (Life Technologies):\nas §3, §4"}, "[7]": {"system": "mean arterial pressure (MAP)", "details": "rat, in vivo, po", "experimental": "In-Vivo Assay—Comparison Between the Compounds of the Present Invention and Comparative Compounds A, B and C\nIn a side-by-side in-vivo study, select compounds of the present invention and comparative compounds A-C are evaluated in telemetry-instrumented conscious rats to determine their effects on mean arterial pressure (MAP) at doses at or above therapeutically relevant concentrations.\n(§2) All animals (telemetry-instrumented) are single housed in metabolic cages. Rats are acclimated to the metabolic cage for at least 3 days and then dosed with vehicle for up to 4 days. Blood pressure, heart rate, and bodyweight are collected during the baseline period and animals are randomized into 3 groups based on these parameters (n=8-9/group). Treatment groups are: vehicle and test compound (10 mg/kg po and 30 mg/kg po qd); animals are treated with compound for 5 days. […] Mean arterial pressure (MAP) and heart rate (HR) are collected continuously throughout the study. Statistical analyses is performed using GraphPad Prism based on the average 24-hr mean value during five days of compound administration (one-way ANOVA with Dunnett's post-test vs. Vehicle; p<0.05 is considered statistically significant)."}, "[8]": {"experiment": "Plasma compound exposure in rats (tail bleed, day 6)", "type": "in vivo", "details": "plasma, rat", "experimental": "as §2"}}, "note": "Read-outs that look alike come from different tables or passages of the source.", "data": [{"smiles": "CC#CC(=O)N1CC[C@]2(C1)C[C@H](n1nc(-c3cnn(Cc4ccccc4C(F)(F)F)c3)c(C(N)=O)c1N)C2", "note": "[Example 12]", "values": [{"measurement": "IC50", "setting": "[1]", "result": 92, "unit": "nM"}, {"measurement": "IC50", "setting": "[2]", "result": 130, "unit": "nM"}, {"measurement": "IC50", "setting": "[3]", "result": 0.5, "unit": "nM"}, {"measurement": "IC50", "setting": "[4]", "result": 0.5, "unit": "nM"}, {"measurement": "IC50", "setting": "[5]", "result": "> 10000", "unit": "nM"}, {"measurement": "IC50", "setting": "[6]", "result": 1.7, "unit": "nM"}, {"measurement": "5-Day 24-h MAP Change versus Control", "setting": "[7]; 10 mg/kg", "result": "No statistically significant"}, {"measurement": "5-Day 24-h MAP Change versus Control", "setting": "[7]; 30 mg/kg", "result": "No statistically significant"}, {"measurement": "Cmax", "setting": "[8]; 10 mg/kg po qd", "result": "111 ± 37", "unit": "nM"}, {"measurement": "Cmax", "setting": "[8]; 30 mg/kg po qd", "result": "344 ± 106", "unit": "nM"}]}, {"smiles": "CC#CC(=O)N1CC[C@]2(C1)C[C@H](n1nc(-c3cnn(Cc4cccc(C(F)(F)F)c4)c3)c(C(N)=O)c1N)C2", "note": "[Example 22]", "values": [{"measurement": "IC50", "setting": "[1]", "result": 21, "unit": "nM"}, {"measurement": "IC50", "setting": "[2]", "result": 46, "unit": "nM"}, {"measurement": "IC50", "setting": "[3]", "result": 0.8, "unit": "nM"}, {"measurement": "IC50", "setting": "[4]", "result": 0.3, "unit": "nM"}, {"measurement": "IC50", "setting": "[5]", "result": "> 10000", "unit": "nM"}, {"measurement": "IC50", "setting": "[6]", "result": 0.7, "unit": "nM"}, {"measurement": "5-Day 24-h MAP Change versus Control", "setting": "[7]; 10 mg/kg", "result": "No statistically significant"}, {"measurement": "5-Day 24-h MAP Change versus Control", "setting": "[7]; 30 mg/kg", "result": "No statistically significant"}, {"measurement": "Cmax", "setting": "[8]; 10 mg/kg po qd", "result": "170 ± 29", "unit": "nM"}, {"measurement": "Cmax", "setting": "[8]; 30 mg/kg po qd", "result": "720 ± 262", "unit": "nM"}]}]}
